Tests used:
[1] = biological target: P2X7 receptor (Homo sapiens (Human), UniProt Q99572); experiment: Human P2X7 channel calcium-influx assay (Fluo-8 NW, FLIPR TETRA, Bz-ATP stimulation); assay type: cell-based; conditions: HEK-293 cells stably transfected with P2X7 receptor, Low Divalent Cation Assay Buffer, read-out: hP2X7 IC50
Procedure: (§1) Extracellular binding of Bz-ATP to P2X7 receptor opens the channel and allows Ca^2+ influx into the cells. This Ca^2+ entry was measured in HEK-293 cells stably transfected with P2X7 receptor using Screen Quest™ Fluo-8 No Wash Calcium Assay Kit (AAt Bioquest®, cat. 36316). Once inside the cell, the lipophilic blocking groups of Fluo-8 are cleaved by non-specific cell esterases, resulting in a negatively-charged fluorescent dye that stays inside cells. Its fluorescence increases upon binding to calcium. When HEK-293/P2X7 cells are stimulated with Bz-ATP, Ca^2+ enters the cells and the fluorescence of Fluo-8 NW increases.
(§2) HEK-293 cells stably transfected with P2X7 receptor were seeded overnight in growth medium at 10,000 to 20,000 cells/well in 384-well plate. 24 hours later, the medium was removed, and the cells were pre-loaded at RT for 1 hour with 20 μL/w of Fluo-8 NW. Then 10 μL/w of test compounds and reference antagonist A438079 at 3X-concentration were injected with the […] and the kinetic response over a period of five minutes was monitored.

[2] = biological target: mP2X7 (Mus musculus (Mouse), UniProt Q9Z1M0); experiment: mP2X7 channel calcium-influx assay (Fluo-8 NW, FLIPR TETRA, Bz-ATP stimulation); assay type: cell-based
Procedure: as §1, §2

mP2X7, sequence (Q9Z1M0 whole entry): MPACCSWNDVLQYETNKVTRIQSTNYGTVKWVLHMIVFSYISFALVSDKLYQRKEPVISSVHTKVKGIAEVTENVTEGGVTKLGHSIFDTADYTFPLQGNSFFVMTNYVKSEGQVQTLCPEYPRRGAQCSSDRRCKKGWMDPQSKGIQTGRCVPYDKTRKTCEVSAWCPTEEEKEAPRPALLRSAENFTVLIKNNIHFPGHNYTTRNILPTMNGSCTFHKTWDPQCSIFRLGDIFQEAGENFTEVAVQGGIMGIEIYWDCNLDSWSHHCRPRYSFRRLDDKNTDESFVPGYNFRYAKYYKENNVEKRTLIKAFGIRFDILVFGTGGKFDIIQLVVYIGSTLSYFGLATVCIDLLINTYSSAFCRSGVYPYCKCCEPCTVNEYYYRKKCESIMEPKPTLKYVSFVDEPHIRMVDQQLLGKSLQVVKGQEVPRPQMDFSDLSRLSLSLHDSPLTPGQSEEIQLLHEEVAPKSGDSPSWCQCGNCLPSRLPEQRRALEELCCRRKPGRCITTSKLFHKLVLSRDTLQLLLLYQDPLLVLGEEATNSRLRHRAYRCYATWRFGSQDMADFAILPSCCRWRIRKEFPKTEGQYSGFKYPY
P2X7 receptor, sequence (Q99572 whole entry): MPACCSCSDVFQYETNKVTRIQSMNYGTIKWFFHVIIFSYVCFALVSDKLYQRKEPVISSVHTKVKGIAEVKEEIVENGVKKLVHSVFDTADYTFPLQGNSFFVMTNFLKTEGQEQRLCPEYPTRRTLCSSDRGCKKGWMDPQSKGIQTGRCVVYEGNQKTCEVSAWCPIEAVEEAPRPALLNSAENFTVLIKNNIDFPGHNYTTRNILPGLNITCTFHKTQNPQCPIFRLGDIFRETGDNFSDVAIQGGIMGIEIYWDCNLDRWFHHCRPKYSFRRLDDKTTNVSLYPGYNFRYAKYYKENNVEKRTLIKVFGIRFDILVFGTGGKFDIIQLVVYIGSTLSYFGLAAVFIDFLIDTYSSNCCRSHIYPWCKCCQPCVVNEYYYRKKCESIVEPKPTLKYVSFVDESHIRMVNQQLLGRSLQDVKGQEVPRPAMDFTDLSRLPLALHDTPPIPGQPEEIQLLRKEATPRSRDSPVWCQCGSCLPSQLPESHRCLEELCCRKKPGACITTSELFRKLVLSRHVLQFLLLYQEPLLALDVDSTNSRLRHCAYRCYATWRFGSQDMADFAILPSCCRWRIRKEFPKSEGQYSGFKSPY

| Structure (SMILES) | IC50 [1] | IC50 [2] |
| --- | --- | --- |
| O=C(NCC(c1scnc1C(F)F)N1CCC(Oc2ncccc2C(F)(F)F)CC1)c1c(F)cccc1Cl (stereo not shown) [Example 59, 2-Chloro-N-{2-[4-(difluoromethyl)-1,3-thiazol-5-yl]-2-(4-{[3-(trifluoromethyl)pyridin-2-yl]oxy}piperidin-1-yl)ethyl}-6-fluorobenzamide] | 29.4 nM | 56.1 nM |
| COc1nccc(OC2CCN(C(CNC(=O)c3c(F)cccc3Cl)c3scnc3C(F)F)CC2)n1 (stereo not shown) [Example 63, 2-Chloro-N-{2-[4-(difluoromethyl)-1,3-thiazol-5-yl]-2-{4-[(2-methoxypyrimidin-4-yl)oxy]piperidin-1-yl}ethyl}-6-fluorobenzamide] | 41.2 nM | 49.3 nM |
| COc1ccnc(OC2CCN(C(CNC(=O)c3c(F)cccc3Cl)c3scnc3C(F)F)CC2)n1 (stereo not shown) [Example 64, 2-Chloro-N-{2-[4-(difluoromethyl)-1,3-thiazol-5-yl]-2-{4-[(4-methoxypyrimidin-2-yl)oxy]piperidin-1-yl}ethyl}-6-fluorobenzamide] | 65.8 nM | 209 nM |
| Cc1nc(C)c(F)c(OC2CCN(C(CNC(=O)c3c(F)cccc3Cl)c3scnc3C(F)F)CC2)n1 (stereo not shown) [Example 67, 2-Chloro-N-{2-[4-(difluoromethyl)-1,3-thiazol-5-yl]-2-{4-[(5-fluoro-2,6-dimethylpyrimidin-4-yl)oxy]piperidin-1-yl}ethyl}-6-fluorobenzamide] | 62.3 nM | 64.5 nM |
| O=C(NCC(c1scnc1C(F)F)N1CCC(Oc2cnccn2)CC1)c1c(F)cccc1Cl (stereo not shown) [Example 70, 2-Chloro-N-{2-[4-(difluoromethyl)-1,3-thiazol-5-yl]-2-[4-(pyrazin-2-yloxy)piperidin-1-yl]ethyl}-6-fluorobenzamidev] | 50 nM | 101 nM |
| O=C(NCC(c1scnc1C(F)F)N1CCC(Oc2cccnn2)CC1)c1c(F)cccc1Cl (stereo not shown) [Example 71, 2-Chloro-N-{2-[4-(difluoromethyl)-1,3-thiazol-5-yl]-2-[4-(pyridazin-3-yloxy)piperidin-1-yl]ethyl}-6-fluorobenzamide] | 58.9 nM | 222 nM |
| N#Cc1ccnc(OC2CCN(C(CNC(=O)c3c(F)cccc3Cl)c3scnc3C(F)F)CC2)c1 (stereo not shown) [Example 79, 2-Chloro-N-(2-{4-[(4-cyanopyridin-2-yl)oxy]piperidin-1-yl}-2-[4-(difluoromethyl)-1,3-thiazol-5-yl]ethyl)-6-fluorobenzamide] | 30.1 nM | 41.4 nM |
| Cc1ccnc(OCC2CCN(C(CNC(=O)c3c(F)cccc3Cl)c3scnc3C(F)F)CC2)c1 (stereo not shown) [Example 89, 2-Chloro-N-{2-[4-(difluoromethyl)-1,3-thiazol-5-yl]-2-(4-{[(4-methylpyridin-2-yl)oxy]methyl}piperidin-1-yl)ethyl}-6-fluorobenzamide] | 29.2 nM | 24.1 nM |
| O=C(NCC(c1scnc1C(F)F)N1CCC(COc2nnnn2-c2ccccc2)CC1)c1c(F)cccc1Cl (stereo not shown) [Example 97, 2-Chloro-N-{2-[4-(difluoromethyl)-1,3-thiazol-5-yl]-2-(4-{[(1-phenyl-1H-1,2,3,4-tetrazol-5-yl)oxy]methyl}piperidin-1-yl)ethyl}-6-fluorobenzamide] | 34 nM | 13.8 nM |
| Cc1cnc(OCC2CCN(C(CNC(=O)c3c(F)cccc3Cl)c3scnc3C(F)F)CC2)nc1 (stereo not shown) [Example 100, 2-Chloro-N-{2-[4-(difluoromethyl)-1,3-thiazol-5-yl]-2-(4-{[(5-methylpyrimidin-2-yl)oxy]methyl}piperidin-1-yl)ethyl}-6-fluorobenzamide] | 37.8 nM | 66.7 nM |
| O=C(NCC(c1scnc1C(F)F)N1CCC(COc2ccc(F)cn2)CC1)c1c(F)cccc1Cl (stereo not shown) [Example 102, 2-Chloro-N-{2-[4-(difluoromethyl)-1,3-thiazol-5-yl]-2-(4-{[(5-fluoropyridin-2-yl)oxy]methyl}piperidin-1-yl)ethyl}-6-fluorobenzamide] | 32 nM | 33.8 nM |
| O=C(NCC(c1scnc1C(F)F)N1CCC(COc2cncc(F)n2)CC1)c1c(F)cccc1Cl (stereo not shown) [Example 105, 2-Chloro-N-{2-[4-(difluoromethyl)-1,3-thiazol-5-yl]-2-(4-{[(6-fluoropyrazin-2-yl)oxy]methyl}piperidin-1-yl)ethyl}-6-fluorobenzamide] | 48.4 nM | 30.4 nM |
| O=C(NCC(c1scnc1C(F)F)N1CCC(COc2ccnc(F)n2)CC1)c1c(F)cccc1Cl (stereo not shown) [Example 107, 2-Chloro-N-{2-[4-(difluoromethyl)-1,3-thiazol-5-yl]-2-(4-{[(2-fluoropyrimidin-4-yl)oxy]methyl}piperidin-1-yl)ethyl}-6-fluorobenzamide] | 55.2 nM | 24.2 nM |
| Cc1c(F)ncnc1OCC1CCN(C(CNC(=O)c2c(F)cccc2Cl)c2scnc2C(F)F)CC1 (stereo not shown) [Example 113, 2-Chloro-N-{2-[4-(difluoromethyl)-1,3-thiazol-5-yl]-2-(4-{[(6-fluoro-5-methylpyrimidin-4-yl)oxy]methyl}piperidin-1-yl)ethyl}-6-fluorobenzamide] | 38.5 nM | 17.5 nM |
| O=C(NCC(c1scnc1C(F)F)N1CCC(COc2nccc(C(F)(F)F)n2)CC1)c1c(F)cccc1Cl (stereo not shown) [Example 114, 2-Chloro-N-{2-[4-(difluoromethyl)-1,3-thiazol-5-yl]-2-[4-({[4-(trifluoromethyl)pyrimidin-2-yl]oxy}methyl)piperidin-1-yl]ethyl}-6-fluorobenzamide] | 50.7 nM | 37.2 nM |
| O=C(NCC(c1scnc1C(F)F)N1CCC(COc2cc(C(F)(F)F)ncn2)CC1)c1c(F)cccc1Cl (stereo not shown) [Example 115, 2-Chloro-N-{2-[4-(difluoromethyl)-1,3-thiazol-5-yl]-2-[4-({[6-(trifluoromethyl)pyrimidin-4-yl]oxy}methyl)piperidin-1-yl]ethyl}-6-fluorobenzamide] | 74.5 nM | 44.3 nM |

These reach a lower IC50 [1]. Values come first.

| IC50 [1] | IC50 [2] | Structure (SMILES) |
| --- | --- | --- |
| 11.9 nM | 29.4 nM | O=C(NCC(c1scnc1C(F)F)N1CCC(Oc2cccc(F)n2)CC1)c1c(F)cccc1Cl (stereo not shown) [Example 72, 2-Chloro-N-{2-[4-(difluoromethyl)-1,3-thiazol-5-yl]-2-{4-[(6-fluoropyridin-2-yl)oxy]piperidin-1-yl}ethyl}-6-fluorobenzamide] |
| 15.2 nM | 41.9 nM | O=C(NCC(c1scnc1C(F)F)N1CCC(COc2nccs2)CC1)c1c(F)cccc1Cl (stereo not shown) [Example 82, 2-chloro-N-{2-[4-(difluoromethyl)-1,3-thiazol-5-yl]-2-{4-[(1,3-thiazol-2-yloxy)methyl]piperidin-1-yl}ethyl}-6-fluorobenzamide] |
| 13 nM | 32.7 nM | O=C(NCC(c1scnc1C(F)F)N1CCC(COc2nc(Cl)cs2)CC1)c1c(F)cccc1Cl (stereo not shown) [Example 83, 2-Chloro-N-[2-(4-{[(4-chloro-1,3-thiazol-2-yl)oxy]methyl}piperidin-1-yl)-2-[4-(difluoromethyl)-1,3-thiazol-5-yl]ethyl]-6-fluorobenzamide] |
| 27.8 nM | 25.2 nM | Cc1cccc(OCC2CCN(C(CNC(=O)c3c(F)cccc3Cl)c3scnc3C(F)F)CC2)n1 (stereo not shown) [Example 88, 2-Chloro-N-{2-[4-(difluoromethyl)-1,3-thiazol-5-yl]-2-(4-{[(6-methylpyridin-2-yl)oxy]methyl}piperidin-1-yl)ethyl}-6-fluorobenzamide] |
| 20 nM | 25.7 nM | N#Cc1ncccc1OCC1CCN(C(CNC(=O)c2c(F)cccc2Cl)c2scnc2C(F)F)CC1 (stereo not shown) [Example 90, 2-Chloro-N-[2-(4-{[(2-cyanopyridin-3-yl)oxy]methyl}piperidin-1-yl)-2-[4-(difluoromethyl)-1,3-thiazol-5-yl]ethyl]-6-fluorobenzamide] |
| 22.5 nM | 33.5 nM | N#Cc1nccnc1OCC1CCN(C(CNC(=O)c2c(F)cccc2Cl)c2scnc2C(F)F)CC1 (stereo not shown) [Example 92, 2-Chloro-N-[2-(4-{[(3-cyanopyrazin-2-yl)oxy]methyl}piperidin-1-yl)-2-[4-(difluoromethyl)-1,3-thiazol-5-yl]ethyl]-6-fluorobenzamide] |
| 22.8 nM | 15.2 nM | Cc1cccnc1OCC1CCN(C(CNC(=O)c2c(F)cccc2Cl)c2scnc2C(F)F)CC1 (stereo not shown) [Example 99, 2-Chloro-N-{2-[4-(difluoromethyl)-1,3-thiazol-5-yl]-2-(4-{[(3-methylpyridin-2-yl)oxy]methyl}piperidin-1-yl)ethyl}-6-fluorobenzamide] |
| 25.6 nM | 13.2 nM | N#Cc1cccnc1OCC1CCN(C(CNC(=O)c2c(F)cccc2Cl)c2scnc2C(F)F)CC1 (stereo not shown) [Example 108, 2-Chloro-N-[2-(4-{[(3-cyanopyridin-2-yl)oxy]methyl}piperidin-1-yl)-2-[4-(difluoromethyl)-1,3-thiazol-5-yl]ethyl]-6-fluorobenzamide] |
| 24.9 nM | 19.2 nM | N#Cc1cccc(OCC2CCN(C(CNC(=O)c3c(F)cccc3Cl)c3scnc3C(F)F)CC2)n1 (stereo not shown) [Example 109, 2-Chloro-N-[2-(4-{[(6-cyanopyridin-2-yl)oxy]methyl}piperidin-1-yl)-2-[4-(difluoromethyl)-1,3-thiazol-5-yl]ethyl]-6-fluorobenzamide] |
| 22.5 nM | 16.1 nM | N#Cc1ccncc1OCC1CCN(C(CNC(=O)c2c(F)cccc2Cl)c2scnc2C(F)F)CC1 (stereo not shown) [Example 111, 2-Chloro-N-[2-(4-{[(4-cyanopyridin-3-yl)oxy]methyl}piperidin-1-yl)-2-[4-(difluoromethyl)-1,3-thiazol-5-yl]ethyl]-6-fluorobenzamide] |

— US20240034737A1, “Heterocyclic Derivatives as P2X7 Receptor Antagonists” (BREYE THERAPEUTICS APS, priority 2020, published 2024)
